In US7879844B2, “Heterocyclic janus kinase 3 inhibitors” (Astellas Pharma Inc., priority 2005, dated 2011) one finds IC50 data, which are given here for 14 compounds.

T1 sequence (P52333 796-1124): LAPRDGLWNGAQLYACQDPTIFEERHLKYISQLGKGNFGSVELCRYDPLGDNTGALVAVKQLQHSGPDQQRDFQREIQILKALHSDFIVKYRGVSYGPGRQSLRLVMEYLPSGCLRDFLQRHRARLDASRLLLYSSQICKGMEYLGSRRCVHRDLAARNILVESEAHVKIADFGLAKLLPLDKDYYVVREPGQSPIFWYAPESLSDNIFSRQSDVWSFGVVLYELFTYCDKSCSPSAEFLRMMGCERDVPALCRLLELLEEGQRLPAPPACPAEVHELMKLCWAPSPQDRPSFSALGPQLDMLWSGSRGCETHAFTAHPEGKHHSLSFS

This assay addresses T1, human JAK3 kinase domain (Homo sapiens, UniProt P52333).
T1 construct: attached to the N-terminal of the 796-1124 (C-terminal) fragment of the human JAK3 protein; His-tag (N); purchased Carna Biosciences, Inc. (Kobe, Japan); host or cells: baculovirus expression system
Kind of assay: JAK3 inhibition test. The class given is biochemical. The following applies: purified human JAK3 kinase domain; Biotin-Lyn-Substrate-2, 20 μM ATP in substrate solution; absorbance at 450 nm; read-out: IC50 (JAK3 inhibitory activity). On the procedure:
The JAK3 inhibition test was performed as described below according to the method of Okimoto et al.
Purified human JAK3 kinase domain was purchased from Carna Biosciences, Inc. (Kobe, Japan). This is obtained as described below. His-tag (41 kDa) was attached to the N-terminal of the 796-1124 (C-terminal) fragment of the human JAK3 protein (accession number #NM_000215), expressed using baculovirus expression system, and then purified using Ni-NTA affinity column chromatography.
After incubation at ambient temperature for one hour, the plate was washed with a cleaning buffer (50 mM Tris-HCl pH 7.5, 150 mM NaCl, 0.02% Tween 20), and a blocking buffer (a cleaning buffer containing 0.1% bovine serum albumin) was added to the plate. After incubation at ambient temperature for 30 minutes, the blocking buffer was removed, and an HRP-PY-20 solution (obtained by diluting HRP-PY-20 solution with the blocking buffer 500 times) was added. After incubation at ambient temperature for 30 minutes, the plate was washed four times, and a TMB substrate solution (Sigma) was added to the plate. After incubation at ambient temperature for four minutes, 1M sulfuric acid was added to stop the reaction. Enzyme activity was measured as absorbance at 450 nm. The efficacy of the test compound as a JAK3 inhibitor was expressed as an IC50 value.
As usually defined, the IC50 is the concentration that inhibits the measured activity by half. Take `O[C@]12CC3C[C@H](C1)[C@H](Nc1c(-c4nnco4)cnc4[nH]ccc14)[C@@H](C3)C2` (relative stereo) [Example 29, rel-(1s,3R,4R,5S)-4-{[5-(1,3,4-oxazole-2-yl)-1H-pyrrolo[2,3-b]pyridine-4-yl]amino}adamantan-1-ol]: the IC50 was determined as 2.3 nM.

As for `COCCNC(=O)C(=O)Nc1nn([C@H]2C3CC4CC2C[C@@](O)(C4)C3)c2c1cnc1[nH]ccc12` [Example 32, cis-N-{1-[(1R,2R,3S,5s)-5-hydroxyadamantan-2-yl]-1,6-dihydropyrazolo[3,4-d]pyrrolo[2,3-b]pyridine-3-yl}-N′-(2-methoxyethyl)ethanediamide], the concentration for half-maximal inhibition (IC50) worked out at 1.9 nM.

With `CNC(=O)C(=O)Nc1nn([C@H]2[C@@H]3CC4C[C@H]2C[C@@](O)(C4)C3)c2c1cnc1[nH]ccc12` [Example 33, cis-N-{1-[(1R,2R,3S,5s)-5-hydroxyadamantan-2-yl]-1,6-dihydropyrazolo[3,4-d]pyrrolo[2,3-b]pyridine-3-yl}-N′-methylethanediamide], the IC50 came to 2.1 nM.

With `Nc1nnc(-c2cnc3[nH]ccc3c2N[C@H]2C3CC4CC2C[C@@](O)(C4)C3)s1` [Example 34, (1s,4r)-4-{[5-(5-amino-1,3,4-thiadiazole-2-yl)-1H-pyrrolo[2,3-b]pyridine-4-yl]amino}adamantan-1-ol], the IC50 was found to be 0.17 nM.

Consider `NC(=O)c1cnc2[nH]ccc2c1N[C@@H]1C[C@H]2CC[C@@H]1C2` [Example 133], for which the IC50 came to 4.4 nM.

Take `N#Cc1ccc(N2[C@@H]3CC[C@H]2C[C@H](Nc2c(C(N)=O)cnc4[nH]ccc24)C3)nc1` [Example 143]: the IC50 is 0.69 nM.

Regarding `O=C(CO)c1cnc2[nH]ccc2c1N[C@H]1C2CC3CC1C[C@@](O)(C3)C2` [Example 379], the concentration for half-maximal inhibition (IC50) amounted to 1.2 nM.

As for `CN(CC#N)C(=O)C12CC3CC(C1)C(n1c(=O)[nH]c4cnc5[nH]ccc5c41)C(C3)C2` (centres unmarked) [Example 384], the concentration for half-maximal inhibition (IC50) amounted to 0.28 nM.

With `N#CCCOC12CC3CC(C1)C(n1c(=O)[nH]c4cnc5[nH]ccc5c41)C(C3)C2` (centres unmarked) [Example 405], the IC50 turned out to be 0.65 nM.

Regarding `N#CC12CC3CC(C1)C(Nc1c(C(N)=O)cnc4[nH]cnc14)C(C3)C2` (centres unmarked) [Example 426], the half-maximal inhibitory concentration (IC50) is 2.3 nM.

As for `CO[C@H]1CC[C@H](NC(=O)C(=O)Nc2nn([C@H]3[C@@H]4CC5C[C@H]3C[C@@](O)(C5)C4)c3c2cnc2[nH]ccc23)CC1` [Example 434], the 50% inhibitory concentration (IC50) turned out to be 0.86 nM.

With `OCc1noc(-c2cnc3[nH]ccc3c2N[C@H]2C3CC4CC2C[C@@](O)(C4)C3)n1` [Example 484], the concentration for half-maximal inhibition (IC50) was 0.31 nM.

Consider `N#CCCOC12CC3CC(C1)C(n1[nH]c(=O)c4cnc5[nH]ccc5c41)C(C3)C2` (centres unmarked) [Example 498], for which the IC50 is 1.3 nM.

With `N#Cc1ccc(N2[C@@H]3CC[C@H]2C[C@H](Nc2c(C(N)=O)cnc4[nH]ccc24)C3)nn1` [Example 543], the half-inhibitory concentration (IC50) amounted to 0.33 nM.
